Reference: patent US7326700B2, “Cyclohexenyl phenyl carboxamides tocolytic oxytocin receptor antagonists” (Wyeth, priority 2001, dated 2008)

target: T1, human vasopressin V1a receptor subtype (Homo sapiens, UniProt P37288); assay: Vasopressin binding in CHO cell membranes expressing human vasopressin V1a subtype receptors ([3H]Manning ligand radioligand binding); details: 100 nM
T1 construct: host or cells: CHO cells, stably transfected (pZeoSV vector for the Thibonnier line)
Excerpt: Chinese hamster ovary cells (CHO cells) stably transfected with the human vasopressin V1a subtype receptors were either obtained from Biosignal Inc., 1744 rue Williams, Montreal, Quebec, Canada or obtained from M. Thibonnier, Case Western Reserve University School of Medicine, Cleveland, Ohio.
CHO cells transfected with the human vasopressin V1a subtype receptors obtained from M. Thibonnier (pZeoSV vector) are allowed to grow to confluency (approx. >90%) in T-150 flasks under sterile conditions, in a cell culture medium consisting of F-12 Nutrient Mixture (HAM) with L-glutamine (Gibco Cat. #11765-054) containing 15 mM HEPES (Gibco Cat. #15630-080), 1% antibiotic/antimycotic (add 5 mL 100×, Gibco Cat. #15240-062 per 500 mL F-12), 250 μg/mL Zeocin (add 1.25 mL of 100 mg/mL Invitrogen R-250-01 per 500 mL F-12) and 10% Fetal Bovine Serum (Qualified, heat inactivated, Gibco Cat. #16140-063). The medium is removed by aspiration and the cells are washed with 10 mL of Hank's Balanced Salt solution (Gibco Cat. #14175-095). The salt solution is removed by aspiration and the cells are trypsinized with 5 mL of trypsin-EDTA (0.05% trypsin, 0.53 mM EDTA-4Na, Gibco Cat. #25300-070) for 1 min. The trypsin is removed by aspiration and the cells dislodged by tapping. Cell Culture medium (eg, 30 mL for 1:30 split) is immediately added and mixed well to inactivate trypsin. 1 mL of detached cells is added to new culture flasks containing fresh cell culture medium (eg, into 25 mL per T-150 flask), and mixed gently. The cells are incubated at 37° C. in 5% CO2. The medium is changed at 3 to 4 days interval (or as appropriate). The cells grow to confluency (approx. >75%-95%) within 7-8 days. All steps are done under sterile conditions.
The cells are washed twice gently with Hank's Balanced Salt solution (e.g,. use 10 mL per T-150 flask). The excess is removed and the cells are bathed for 15-30 min. in an enzyme-free Cell Dissociation Buffer (e.g. use 8 mL Hank's Based, Gibco Cat. #13150-016 per T-150 flask) until the cells are loosened. The contents are transferred to centrifuge tubes (50 mL) kept in an ice bath. All subsequent steps are done at 4° C. The tubes are centrifuged at 300×g for 15 min (1380 rpm on SORVAL, Model RT6000D, using the rotor for 50 mL tubes). The supernatant is discarded and the cells suspended in homogeneizing buffer (10 mM Tris-HCl containing 0.25 M sucrose and 1 mM EDTA, pH 7.4) ensuring that the volume of the buffer is about ten times the volume of the cell pellet. The cells are pooled into a centrifuge tube (50 mL) and homogenized with Polytron at setting 6 for 10 sec. The homogenate is transferred into a Potter-Elvjehm homogenizer and homogenized with 3 strokes. The homogenate is centrifuged at 1500×g for 10 min at 4° C. (3100 rpm using SORVAL, model RT6000D, using the rotor for 50 mL tubes). The pellet is discarded. The supernatant is centrifuged at 100,000×g for 60 min. at 4° C. (Beckman L8-80M ultracentrifuge; spin at 37,500 rpm with rotor type 70 Ti for 50 mL tubes; 38,000 rpm with type 80Ti for 15 mL tubes; or 35,800 rpm with rotor type 45Ti). The supernantant is discarded and the pellet suspended in 3 to 4 mL of Tris buffer (50 mM TRIS-HCl, pH 7.4). The protein content is estimated by the Bradford or Lowry method. The volume of the membrane suspension is adjusted with the membrane buffer (50 mM Tris-HCl containing 0.1% BSA and 0.1 mM PMSF) to give 3.0 mg/mL (or as appropriate) of protein. The membranes are aliquoted and stored at −70° C.
In wells of a 96-well format microtiter plate, is added 90, 110 or 130 μL (to make up a final volume of 200 μL) of assay buffer containing 50 mM of Tris-HCl (pH 7.4), BSA (heat inactivated, protease-free), […], 1 mg % aprotinin, 1 mg % leupeptin, 2 mg % 1,10-phenanthroline, 10 mg % trypsin inhibitor, and 0.1 mM PMSF. The inhibitors are added on the day of the experiment. […]

T1 sequence (P37288 whole entry): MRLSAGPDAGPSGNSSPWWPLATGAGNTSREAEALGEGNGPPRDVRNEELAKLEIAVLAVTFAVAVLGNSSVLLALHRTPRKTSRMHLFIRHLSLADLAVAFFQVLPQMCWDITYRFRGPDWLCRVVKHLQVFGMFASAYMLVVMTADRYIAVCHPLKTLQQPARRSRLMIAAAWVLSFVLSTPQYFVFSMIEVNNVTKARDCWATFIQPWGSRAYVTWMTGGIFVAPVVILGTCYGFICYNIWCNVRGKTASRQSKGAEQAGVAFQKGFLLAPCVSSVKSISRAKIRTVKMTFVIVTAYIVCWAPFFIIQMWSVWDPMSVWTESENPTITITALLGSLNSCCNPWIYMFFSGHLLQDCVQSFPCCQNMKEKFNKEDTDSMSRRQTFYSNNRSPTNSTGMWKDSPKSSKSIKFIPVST

Going from `Cc1cc(C(=O)N2Cc3ccc(C(=O)N4CCN(CCN(C)C)CC4)n3Cc3ccccc32)ccc1C1=CCCCC1` [Example 22, {10-[4-(1-Cyclohex-1-en-1-yl)-3-methylbenzoyl]-10,11-dihydro-5H-pyrrolo[2,1-c][1,4]benzodiazepin-3-yl}{4-[2-(dimethylamino)ethyl]-1-piperazinyl}methanone] to `C=CCN1CCN(C(=O)c2ccc3n2Cc2ccccc2N(C(=O)c2ccc(C4=CCCCC4)c(C)c2)C3)CC1` [Example 24, (4-Allyl-1-piperazinyl){10-[4-(1-cyclohex-1-en-1-yl)-3-methylbenzoyl]-10,11-dihydro-5H-pyrrolo[2,1-c][1,4]benzodiazepin-3-yl}methanone], the “V1a % inhibition @ 100 nM” value falls from 34% to 12%.

Going from `Cc1cc(C(=O)N2Cc3ccc(C(=O)N4CCN(CCN5CCOCC5)CC4)n3Cc3ccccc32)ccc1C1=CCCCC1` [Example 23, {10-[4-(1-Cyclohex-1-en-1-yl)-3-methylbenzoyl]-10,11-dihydro-5H-pyrrolo[2,1-c][1,4]benzodiazepin-3-yl}{4-[2-(4-morpholinyl)ethyl]-1-piperazinyl}methanone] to `Cc1cc(C(=O)N2Cc3ccc(C(=O)N4CCN(C(C)C)CC4)n3Cc3ccccc32)ccc1C1=CCCCC1` [Example 25, {10-[4-(1-Cyclohex-1-en-1-yl)-3-methylbenzoyl]-1 0,11-dihydro-5H-pyrrolo[2,1-c][1,4]benzodiazepin-3-yl}(4-isopropyl-1-piperazinyl)methanone], the “V1a % inhibition @ 100 nM” value falls from 27% to 24%.

First: Cc1cc(C(=O)N2Cc3ccc(C(=O)N4CCC[C@H]4CN4CCCC4)n3Cc3ccccc32)ccc1C1=CCCCC1 [Example 26, {10-[4-(1-Cyclohex-1-en-1-yl)-3-methylbenzoyl]-10,11-dihydro-5H-pyrrolo[2,1-c][1,4]benzodiazepin-3-yl}[(2S)-2-(1-pyrrolidinylmethyl)pyrrolidinyl]methanone]
Second: Cc1cc(C(=O)N2Cc3ccc(C(=O)N4CC[C@@H](N(C)C)C4)n3Cc3ccccc32)ccc1C1=CCCCC1 [Example 27, {10-[4-(1-Cyclohex-1-en-1-yl)-3-methylbenzoyl]-10,11-dihydro-5H-pyrrolo[2,1-c][1,4]benzodiazepin-3-yl}[(3R)-3-(dimethylamino)pyrrolidinyl]methanone]
The “V1a % inhibition @ 100 nM” value of the first is lower: 38% for the first, 62% for the second.

same assay, conditions: value in parentheses

Compound “{10-[4-(1-Cyclohexen-1-yl)-3-methylbenzoyl]-10,11-dihydro-5H-pyrrolo[2,1-c][1,4]benzodiazepin-3-yl}(4-methyl-piperazin-1-yl)methanone [Example 12]” has an IC50 of 421 nM.
